Series [1] concerns the target mu opioid receptor (MOR) (Homo sapiens, UniProt P35372). Briefly: Competitive radioligand binding assay, MOR. The settings on record: from Ki values.
Series [2] has as its system Caco-2 cells. In words: Bidirectional transport in Caco-2 cells. The series is classed as in vitro ADME. The settings on record: apical/basolateral, up to 2 h.
For series [3], the system named is antinociception (tail flick) in mice. In words: Warm-water tail flick test. The settings on record: morphine 10 mg/kg, dose up to 30 mg/kg. The series is classed as in vivo. A general note: In hot-plate and tail-flick tests a longer latency is read as antinociception.
In series [4] the test system is opioid-induced constipation in patients. The note with it: cited from earlier work; for patients with laxation within 4 hours after the first dose: clinical trial, subcutaneous.
Series [5] has as its system GI transit in morphine naive mice. The note with it: similar assay, similar dose (about 10 mg/kg); cited from earlier work.
The subject of series [6] is GI transit in morphine-pelleted mice. The note with it: cited from earlier work.
The test system of series [7] is Caco-2 cells. The note with it: cited from earlier work.
The conditions of series [8]: low due to significant hepatic first-pass; cited from earlier work.

The text below walks through data of article PMC3527108 (Journal of medicinal chemistry, 2012).

Like-named read-outs stand apart in the source and are kept apart here. Some results are limits rather than exact numbers.

mu opioid receptor (MOR), sequence (P35372 whole entry, species assumed): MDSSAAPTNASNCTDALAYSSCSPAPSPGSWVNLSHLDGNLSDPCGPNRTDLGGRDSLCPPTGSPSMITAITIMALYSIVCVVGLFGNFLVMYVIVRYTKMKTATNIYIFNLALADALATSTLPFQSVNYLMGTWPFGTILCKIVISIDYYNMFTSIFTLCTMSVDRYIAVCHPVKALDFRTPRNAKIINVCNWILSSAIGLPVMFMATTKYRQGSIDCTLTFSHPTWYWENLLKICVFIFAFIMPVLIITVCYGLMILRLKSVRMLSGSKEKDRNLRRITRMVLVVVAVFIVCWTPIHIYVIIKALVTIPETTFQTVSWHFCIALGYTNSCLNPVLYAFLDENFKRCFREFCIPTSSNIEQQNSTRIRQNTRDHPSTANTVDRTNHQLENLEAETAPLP

As for `O=C(N[C@@H]1CC[C@@]2(O)[C@H]3Cc4ccc(O)c5c4[C@@]2(CCN3CC2CC2)[C@H]1O5)c1ccnc(Cl)c1` [Compound 1, 17-Cyclopropylmethyl-3,14β-dihydroxy-4,5α-epoxy-6β-{[4′-(2′-chloropyridyl)]carboxamido}morphinan], the “MOR selectivity over DOR” value in series [1] is “over 1000 fold”. As to `Cc1cnccc1C(=O)N[C@@H]1CC[C@@]2(O)[C@H]3Cc4ccc(O)c5c4[C@@]2(CCN3CC2CC2)[C@H]1O5` [Compound 8, 17-Cyclopropylmethyl-3,14β-dihydroxy-4,5α-epoxy-6β-{[4′-(3′-methylpyridyl)]carboxamido}morphinan], in series [2], the “apparent permeability / bidirectional transport” value was “low permeability”. For `O=C(CNC(=O)c1ccncc1)N[C@@H]1CC[C@@]2(O)[C@H]3Cc4ccc(O)c5c4[C@@]2(CCN3CC2CC2)[C@H]1O5` [Compound 12, 17-Cyclopropylmethyl-3,14β-dihydroxy-4,5α-epoxy-6β-{2′-[(pyridine-4′′-yl)carboxamido]acetamido}morphinan], the “antagonism of antinociceptive effect of morphine” value in series [3] is given as “no apparent antagonism effect”.

As for `C[N@+]1(CC2CC2)CC[C@]23c4c5ccc(O)c4O[C@H]2C(=O)CC[C@@]3(O)[C@H]1C5` [MNTX, methylnaltrexone], the “efficiency to induce SBM” value in series [4] is on record as at most 62%. Further, the “patients with laxation within 4 hours after the first dose” value in series [4] (placebo 14%) is reported as 62%; in series [4] (placebo 15%) it was 48%. For `O=C(N[C@@H]1CC[C@@]2(O)[C@H]3Cc4ccc(O)c5c4[C@@]2(CCN3CC2CC2)[C@H]1O5)c1ccncc1` [NAP, 17-cyclopropylmethyl-3, 14β-dihydroxy-4,5α-epoxy-6β-[(4’ -pyridyl)carboxamido]morphinan], the “effect of compound alone on intestinal motility” value in series [5] is listed as “intestinal motility decreased”. In series [6] (GI transit assay), the “ED50 in the GI transit assay” value is 8.8 µg/kg. Moreover, in series [6] (high doses), the incidence of diarrhea entry was “incidence of diarrhea associated with high doses”. Moreover, in series [7], the apparent permeability result was “significantly low”. On to `C=CCN1CC[C@]23c4c5ccc(O)c4O[C@H]2C(=O)CC[C@@]3(O)[C@H]1C5` [Naloxone], for which the systemic bioavailability in series [8] is recorded as ~ 2%.
